Test results taken from ChEMBL document CHEMBL1201862, “PubChem BioAssay data set” (2004).
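Cells were grown in 96-well plates and exposed to each compound for 48 hours at five concentrations; endpoints were interpolated linearly between bracketing concentrations, or set to the highest concentration if not reached. Abbreviation: GI50, concentration required for 50% inhibition of growth.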 Active and inactive are the calls of the source. Rule as the data show it: active = GI50 up to about 1.1 µM and inactive = higher.

How the values were obtained:
Assay in all cases: NCI-60 cell line screen, 48 h
786-0 = tested on: 786-0
CCRF-CEM = tested on: CCRF-CEM
COLO 205 = tested on: COLO 205
DU-145 = tested on: DU-145
Hs-578T = tested on: Hs-578T
IGROV-1 = tested on: IGROV-1
K562 = tested on: K562
KM12 = tested on: KM12
LOX IMVI = tested on: LOX IMVI
NCI-H23 = tested on: NCI-H23
OVCAR-3 = tested on: OVCAR-3
RXF 393 = tested on: RXF 393
SF-295 = tested on: SF-295
SF-539 = tested on: SF-539
SK-MEL-5 = tested on: SK-MEL-5
SNB-19 = tested on: SNB-19
SW-620 = tested on: SW-620
U-251 = tested on: U-251
UO-31 = tested on: UO-31

Measured: GI50

Nc1ccc(Cc2ccc(/N=C\c3ccc(OCc4cccc(COc5ccc(/C=N\c6ccc(Cc7ccc(N)cc7)cc6)cc5)n4)cc3)cc2)cc1
inactive: 786-0 65.9 µM | CCRF-CEM > 100 µM | COLO 205 > 100 µM | DU-145 > 100 µM | Hs-578T 65.6 µM | IGROV-1 > 100 µM | K562 > 100 µM | KM12 > 100 µM | LOX IMVI > 100 µM | NCI-H23 99.1 µM | OVCAR-3 72.3 µM | RXF 393 23.1 µM | SF-295 50.1 µM | SF-539 4.29 µM | SK-MEL-5 > 100 µM | SNB-19 41.7 µM | SW-620 > 100 µM | U-251 41 µM | UO-31 > 100 µM

CC1=C(C(=O)NCCCN(CCO)CCO)CC(C(=O)NCCCN(CCO)CCO)=C(C)N1
inactive: 786-0 > 100 µM | CCRF-CEM 19.1 µM | COLO 205 > 100 µM | DU-145 > 100 µM | Hs-578T 29.1 µM | IGROV-1 > 100 µM | K562 > 100 µM | KM12 85.1 µM | LOX IMVI > 100 µM | NCI-H23 > 100 µM | OVCAR-3 > 100 µM | RXF 393 26.4 µM | SF-295 > 100 µM | SF-539 > 100 µM | SK-MEL-5 22.2 µM | SNB-19 66.4 µM | SW-620 > 100 µM | U-251 > 100 µM | UO-31 93.5 µM

Oc1c2c(c(O)c3ccccc13)C1(N=N2)c2ccccc2Oc2ccccc21
inactive: 786-0 3.2 µM | CCRF-CEM 3.2 µM | COLO 205 13 µM | DU-145 8.73 µM | Hs-578T 5.56 µM | IGROV-1 2.52 µM | K562 9.91 µM | KM12 15.4 µM | LOX IMVI 2.38 µM | NCI-H23 15.2 µM | OVCAR-3 3.01 µM | RXF 393 1.98 µM | SF-295 15 µM | SF-539 5.74 µM | SK-MEL-5 13 µM | SNB-19 16.2 µM | SW-620 3.64 µM | U-251 3.9 µM | UO-31 6.68 µM

CC1=C2C3=C(C)C(=O)C(C)(C)CC[C@@]3(C)[C@]2(C)CCC(C)(C)C1=O
inactive: 786-0 > 100 µM | CCRF-CEM > 100 µM | COLO 205 > 100 µM | DU-145 > 100 µM | Hs-578T > 100 µM | IGROV-1 > 100 µM | K562 > 100 µM | KM12 > 100 µM | LOX IMVI > 100 µM | NCI-H23 > 100 µM | OVCAR-3 > 100 µM | RXF 393 > 100 µM | SF-295 > 100 µM | SF-539 > 100 µM | SK-MEL-5 > 100 µM | SNB-19 > 100 µM | SW-620 > 100 µM | U-251 > 100 µM | UO-31 > 100 µM

O=C(NNC(=O)c1ccc(Cl)cc1NC(=O)C12CC3CC(CC(C3)C1)C2)c1ccc(Cl)cc1
inactive: 786-0 22.5 µM | CCRF-CEM 23.4 µM | COLO 205 14.5 µM | DU-145 22.8 µM | Hs-578T 21.5 µM | IGROV-1 15 µM | K562 34.9 µM | KM12 20.3 µM | LOX IMVI 18.5 µM | NCI-H23 39.7 µM | OVCAR-3 19.5 µM | RXF 393 19.5 µM | SF-295 22.9 µM | SF-539 23.7 µM | SK-MEL-5 18 µM | SNB-19 19.1 µM | SW-620 32.1 µM | U-251 20.2 µM | UO-31 17.1 µM

COC(=O)c1cc2c(cc1C(=O)OC)[C@@]1(C)CCCC(C)(C)C1CC2 (stereo not given in full)
inactive: 786-0 19.5 µM | CCRF-CEM 16.7 µM | DU-145 14.1 µM | Hs-578T 17.7 µM | IGROV-1 10.4 µM | K562 13.8 µM | KM12 15.2 µM | LOX IMVI 18.1 µM | NCI-H23 30.5 µM | OVCAR-3 10.2 µM | RXF 393 10.1 µM | SF-295 16.3 µM | SF-539 22 µM | SK-MEL-5 16.2 µM | SNB-19 23.7 µM | SW-620 18.7 µM | U-251 18.4 µM | UO-31 17.8 µM

CC(=O)O[C@H]1CC[C@@]2(C)C(=CC[C@@H]3[C@@H]2CC[C@]2(C)c4nc(N)c(C#N)cc4C[C@@H]32)C1
inactive: 786-0 28.7 µM | CCRF-CEM 14 µM | COLO 205 20.2 µM | DU-145 40.7 µM | Hs-578T 24.9 µM | IGROV-1 34.3 µM | K562 15.8 µM | KM12 55.1 µM | LOX IMVI 32.2 µM | NCI-H23 35 µM | OVCAR-3 1.75 µM | RXF 393 10.7 µM | SF-295 35.7 µM | SF-539 13.7 µM | SK-MEL-5 12.8 µM | SNB-19 > 100 µM | SW-620 43.4 µM | U-251 43.9 µM | UO-31 > 100 µM

COC(=O)c1c(C)cccc1C1CN=NC12Cc1c(C)cccc1C2=O (stereo not given)
inactive: 786-0 > 100 µM | CCRF-CEM > 100 µM | COLO 205 55.5 µM | DU-145 > 100 µM | Hs-578T 80.2 µM | IGROV-1 > 100 µM | K562 37.2 µM | KM12 46.6 µM | LOX IMVI 50.9 µM | NCI-H23 60 µM | OVCAR-3 45.2 µM | RXF 393 > 100 µM | SF-295 51.2 µM | SF-539 > 100 µM | SK-MEL-5 53 µM | SNB-19 > 100 µM | SW-620 > 100 µM | U-251 > 100 µM | UO-31 24 µM

C=CCSC1=N/C(=C\c2ccco2)C(=O)N1CC=C
inactive: 786-0 > 100 µM | CCRF-CEM 42.6 µM | COLO 205 83.6 µM | DU-145 90.4 µM | Hs-578T > 100 µM | IGROV-1 > 100 µM | K562 35.2 µM | KM12 64.4 µM | LOX IMVI 69.3 µM | NCI-H23 66.5 µM | OVCAR-3 95.3 µM | RXF 393 22.5 µM | SF-295 71.1 µM | SF-539 > 100 µM | SK-MEL-5 37.5 µM | SNB-19 > 100 µM | SW-620 > 100 µM | U-251 > 100 µM | UO-31 53 µM

CCOS(=O)(=O)c1ccc(-c2c3nc(c(-c4ccc(S(=O)(=O)OCC)cc4)c4ccc([nH]4)c(-c4ccc(S(=O)(=O)OCC)cc4)c4nc(c(-c5ccc(S(=O)(=O)OCC)cc5)c5ccc2[nH]5)C=C4)C=C3)cc1
inactive: 786-0 > 31.6 µM | CCRF-CEM > 31.6 µM | COLO 205 > 31.6 µM | DU-145 > 31.6 µM | Hs-578T > 31.6 µM | IGROV-1 > 100 µM | K562 > 10 µM | KM12 > 31.6 µM | LOX IMVI > 10 µM | NCI-H23 > 31.6 µM | OVCAR-3 > 10 µM | RXF 393 17.2 µM | SF-295 > 31.6 µM | SF-539 8.13 µM | SK-MEL-5 > 31.6 µM | SNB-19 > 31.6 µM | SW-620 > 31.6 µM | U-251 > 31.6 µM | UO-31 24.8 µM

COc1cc2cc(C(=O)N3C[C@H](CCl)c4c3cc(O)c3ccccc43)[nH]c2c(OC)c1OC
inactive: COLO 205 1.32 µM
active: 786-0 0.0861 µM | CCRF-CEM 0.207 µM | DU-145 0.628 µM | Hs-578T 0.234 µM | IGROV-1 0.121 µM | K562 0.25 µM | KM12 0.213 µM | LOX IMVI 0.101 µM | NCI-H23 0.0453 µM | OVCAR-3 0.279 µM | RXF 393 0.0459 µM | SF-295 0.107 µM | SF-539 0.055 µM | SK-MEL-5 0.0137 µM | SNB-19 0.246 µM | SW-620 0.174 µM | U-251 0.1 µM | UO-31 0.13 µM

CNC(=O)N(CCC#N)CCN(C(=O)N(C)C)c1ccccc1
inactive: 786-0 > 100 µM | CCRF-CEM > 100 µM | COLO 205 > 100 µM | DU-145 > 100 µM | Hs-578T > 100 µM | IGROV-1 > 100 µM | K562 > 100 µM | KM12 > 100 µM | LOX IMVI > 100 µM | NCI-H23 > 100 µM | OVCAR-3 > 100 µM | RXF 393 > 100 µM | SF-295 > 100 µM | SF-539 > 100 µM | SK-MEL-5 > 100 µM | SNB-19 > 100 µM | SW-620 > 100 µM | U-251 > 100 µM | UO-31 > 100 µM

Oc1[nH]c(Nc2cc(Cl)cc(Cl)c2)nc2ncnc1-2
inactive: 786-0 > 75 µM | CCRF-CEM > 75 µM | COLO 205 > 75 µM | DU-145 > 75 µM | Hs-578T 17.9 µM | IGROV-1 > 75 µM | K562 > 75 µM | KM12 > 75 µM | LOX IMVI > 75 µM | NCI-H23 > 75 µM | OVCAR-3 > 75 µM | RXF 393 > 75 µM | SF-295 > 75 µM | SF-539 > 75 µM | SK-MEL-5 > 75 µM | SNB-19 > 75 µM | SW-620 > 75 µM | U-251 > 75 µM | UO-31 > 75 µM

COc1cc2c3c(n(C)c(=O)c2cc1OC)-c1cc2c(cc1C3=O)OCO2
active: CCRF-CEM 0.237 µM | SF-295 0.871 µM
inactive: 786-0 16.9 µM | COLO 205 > 100 µM | DU-145 12 µM | Hs-578T > 80 µM | IGROV-1 2.47 µM | K562 6.87 µM | KM12 > 100 µM | LOX IMVI 8.59 µM | NCI-H23 5.01 µM | OVCAR-3 53.5 µM | RXF 393 30.3 µM | SF-539 8.75 µM | SK-MEL-5 9.2 µM | SNB-19 27.1 µM | SW-620 10.2 µM | U-251 9.38 µM | UO-31 1.63 µM
